Measured values: PubChem BioAssay AID2842 (Southern Research Institute, 2010)
Converted amounts (≈) assume the structure as drawn.

Each molecule was assayed on M. tuberculosis H37Rv growth inhibition (assay: Mycobacterium tuberculosis H37Rv growth inhibition, putative kinase inhibitor library, confirmatory dose response (AID 2842);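 also: bacteria incubated one week before Alamar blue readout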).
Work on `COC(=O)CSCC(=O)Nc1nnc(-c2ccccc2C)s1` yielded an IC90 of 13.7 µg/mL (≈ 40.7 µM). For `O=C(Nc1nnc(-c2ccco2)o1)c1cccc(C(F)(F)F)c1`, the IC90 was < 0.2 µg/mL. Work on `COc1ccc(-c2nc(C(N)=O)c3[nH]c(=O)n(-c4ccc(C(C)(C)C)cc4)c3n2)c(OC)c1` yielded an IC90 of 17.3 µg/mL (≈ 38.7 µM). For `Cc1oc2c(c1C(=O)NCc1cccnc1)C(=O)c1ccccc1C2=O`, the IC90 was 8.29 µg/mL (≈ 23.9 µM). Work on `CCOc1ccc(C(=O)N2CC(=O)Nc3ccc(Br)cc3C2c2ccccc2)cc1` (configuration not stated) yielded an IC90 of 25.3 µg/mL (≈ 54.3 µM). For `Cc1cccc(C(=O)Nc2nnc(-c3cc(Cl)ccc3Cl)o2)c1`, the IC90 was 32 µg/mL (≈ 91.9 µM). With `Cc1c(C)n2c3c(=O)[nH]c(=O)n(C)c3nc2n1CCCNc1ccccc1Cl` the IC90 was 25.4 µg/mL (≈ 63.4 µM). Work on `O=C1CN(C(=O)c2cc(Br)ccc2Cl)C(c2ccccc2)c2cc(F)ccc2N1` (configuration not stated) yielded an IC90 of 26.1 µg/mL (≈ 55 µM). `O=C(Nc1nc2c(s1)CCc1ccccc1-2)c1cccc(Br)c1` gave an IC90 of 16.8 µg/mL (≈ 43.6 µM). `CC(C)C(=O)Nc1nnc(-c2ccccc2)o1` showed an IC90 of 3.31 µg/mL (≈ 14.3 µM). `COc1ccccc1-c1nnc(NC(=O)Cc2ccc(SC)cc2)o1` showed an IC90 of 52.6 µg/mL (≈ 148 µM). For `O=C(Nc1nnc(-c2ccc3c(c2)CCCC3)o1)c1ccco1`, the IC90 was 0.87 µg/mL (≈ 2.81 µM). Molecule `COc1cccc(NCCCn2c(C)cn3c4c(=O)[nH]c(=O)n(C)c4nc23)c1` has an IC90 of 46.2 µg/mL (≈ 121 µM). `OCc1nc2ccccc2n1CCCCOc1ccc(Cl)cc1` showed an IC90 of 7.39 µg/mL (≈ 22.3 µM). Work on `COc1ccccc1Nc1nc(NCc2ccco2)c2ccccc2n1` yielded an IC90 of 5.62 µg/mL (≈ 16.2 µM). With `CCOc1ccc(NC(=O)c2c(Cl)ccc(Cl)c2Cl)cc1` the IC90 was 11.7 µg/mL (≈ 34 µM). `O=C(CCOc1ccccc1)Nc1nnc(-c2ccc(Cl)s2)o1` gave an IC90 of 13.9 µg/mL (≈ 39.7 µM). `O=C(Nc1nnc(-c2ccc(Cl)cc2)o1)C1CCCCC1` was tested, and the IC90 was 5.6 µg/mL (≈ 18.3 µM). Work on `CC1CCCN(Cc2c(O)ccc3c(=O)c(-c4nc5ccccc5s4)c(N)oc23)C1` (configuration not stated) yielded an IC90 of 2.89 µg/mL (≈ 6.86 µM). `Cc1ccc(-n2nnc3c(SCC(=O)N4CCOCC4)ncnc32)cc1` showed an IC90 of 12.3 µg/mL (≈ 33.3 µM). For `COc1cc(C(=O)Nc2nnc(-c3cc(Cl)ccc3Cl)o2)cc(OC)c1OC`, the IC90 was 28.3 µg/mL (≈ 66.7 µM). For `Cc1ccc(C)c(-c2nnc(NC(=O)c3cccc(F)c3)o2)c1`, the IC90 was 30.9 µg/mL (≈ 99.2 µM). `NC(=O)c1c(NC(=O)/C=C/c2ccc([N+](=O)[O-])s2)sc2c1CCCC2` was tested, and the IC90 was 4.6 µg/mL (≈ 12.2 µM). Molecule `CSc1cccc2sc(Nc3cccc(C)c3)nc12` has an IC90 of 12.2 µg/mL (≈ 42.7 µM). Molecule `O=C(COc1ccc(Cl)cc1)N1CCN(c2ncnc3c2nnn3Cc2ccccc2)CC1` has an IC90 of 6.75 µg/mL (≈ 14.5 µM). `CCOc1ccc2nc(N(CCCn3ccnc3)C(=O)c3cccs3)sc2c1` was tested, and the IC90 was 3.43 µg/mL (≈ 8.31 µM). Work on `CC1=NC2C=CC(Cl)=CC2C(c2ccccc2)=C1C(=O)/C=C/c1nc2ccccc2[nH]1` (configuration not stated) yielded an IC90 of 0.73 µg/mL (≈ 1.71 µM). In the case of `Cc1ccc(C2=NC(C)(C)N=C2SCC(=O)Nc2ccc(C)c(C)c2)cc1`, the IC90 is reported as 23.5 µg/mL (≈ 61.9 µM). Molecule `O=C(Cc1ccc(F)cc1)N(CCCn1ccnc1)c1nc2ccc(F)cc2s1` has an IC90 of 3.39 µg/mL (≈ 8.22 µM). `CCOC(=O)c1ccc2nc(Nc3nc4ccc(OC)cc4s3)sc2c1` was tested, and the IC90 was 29 µg/mL (≈ 75.3 µM). `CCN1C(=O)c2cccc3c(NC(=O)c4ccc(Cl)s4)ccc1c23` showed an IC90 of 8.65 µg/mL (≈ 24.2 µM). `Cc1ccc(NC(=O)CC2C(=O)Nc3ccccc3N2C(=O)c2ccc(Br)cc2)cc1C` (configuration not stated) gave an IC90 of 2.24 µg/mL (≈ 4.55 µM). In the case of `CN(c1ccccc1)S(=O)(=O)c1ccc(C(=O)Nc2nnc(-c3ccco3)o2)cc1`, the IC90 is reported as 8.33 µg/mL (≈ 19.6 µM). With `COC(=O)CSc1ncnc2c1nnn2Cc1ccc(F)cc1` the IC90 was 1.55 µg/mL (≈ 4.65 µM). In the case of `O=C(Nc1ccc(F)cc1)Nc1nc(C(=O)N2CCN(c3ccc(F)cc3)CC2)cs1`, the IC90 is reported as 7.09 µg/mL (≈ 16 µM). With `Cc1ccc(C)c(-c2nnc(NC(=O)c3ccc(C#N)cc3)o2)c1` the IC90 was 23.1 µg/mL (≈ 72.5 µM). Work on `CC1CCc2nc(Nc3nc4cc5c(cc4s3)OCO5)sc2C1` (configuration not stated) yielded an IC90 of 14.4 µg/mL (≈ 41.8 µM). `O=C(Cc1ccccc1)Nc1nnc(-c2ccc3c(c2)OCCO3)o1` was tested, and the IC90 was 15.8 µg/mL (≈ 47 µM). In the case of `O=C(Nc1nnc(-c2ccc(F)cc2)o1)c1cccc([N+](=O)[O-])c1`, the IC90 is reported as 13.2 µg/mL (≈ 40.2 µM). In the case of `Cc1cc(C)c2nc(NNC(=O)c3nc4ccccc4s3)sc2c1`, the IC90 is reported as 4.23 µg/mL (≈ 11.9 µM). `O=C(Nc1nnc(-c2ccc(Cl)cc2)o1)c1cc2ccccc2oc1=O` was tested, and the IC90 was 18.2 µg/mL (≈ 49.4 µM). For `CCOC(=O)c1cnc2ccc(OCC)cc2c1Nc1ccccc1C`, the IC90 was 8.82 µg/mL (≈ 25.2 µM). For `COc1ccccc1-c1cnn2c(NC3CCCCC3)cc(C)nc12`, the IC90 was 13.5 µg/mL (≈ 40.2 µM). `COc1ccccc1C(=O)Nc1nnc(-c2cc(C)ccc2C)o1` showed an IC90 of 1.92 µg/mL (≈ 5.94 µM). In the case of `CCCCn1c(N2CCN(Cc3ccc(Cl)c(Cl)c3)CC2)nc2c1c(=O)[nH]c(=O)n2C`, the IC90 is reported as 7.15 µg/mL (≈ 15.4 µM). `O=c1[nH]c(CSc2ccccc2)nc2ccccc12` showed an IC90 of 7.54 µg/mL (≈ 28.1 µM). `COc1ccccc1Cn1cc2c(-c3ccc(Cl)cc3)nnc-2c2ccccc21` was tested, and the IC90 was 8.89 µg/mL (≈ 22.2 µM). For `Cc1cc(C)c2sc(NNC(=O)c3nc4ccccc4s3)nc2c1`, the IC90 was 15.5 µg/mL (≈ 43.7 µM). In the case of `CCCCC(=O)Nc1nnc(-c2ccc3c(c2)CCCC3)o1`, the IC90 is reported as 3.04 µg/mL (≈ 10.2 µM). With `OCc1nc2ccccc2n1CC(O)COc1ccc(Br)cc1` (configuration not stated) the IC90 was 10.2 µg/mL (≈ 27 µM). `Cc1ccc(C2CC(c3c(-c4ccccc4)c4cc(Cl)ccc4[nH]c3=O)=NO2)cc1` (configuration not stated) showed an IC90 of 12.4 µg/mL (≈ 29.9 µM). Molecule `O=C(/C=C/c1ccccc1)Nc1nc2c(s1)COc1ccccc1-2` has an IC90 of 6.8 µg/mL (≈ 20.3 µM). For `COc1cc(OC)cc(C(=O)N(CCCn2ccnc2)c2nc3cc(C)cc(C)c3s2)c1`, the IC90 was 6.63 µg/mL (≈ 14.7 µM). `CCc1cccc2sc(N(CCCn3ccnc3)C(=O)c3cccs3)nc12` was tested, and the IC90 was 0.34 µg/mL (≈ 0.857 µM). With `O=C(Nc1nnc(-c2cc(Cl)ccc2Cl)o1)c1ccccc1Br` the IC90 was 1.6 µg/mL (≈ 3.87 µM). For `COc1cc(C=NNC(=O)Nc2cccc(Cl)c2)ccc1O`, the IC90 was 8.5 µg/mL (≈ 26.6 µM). With `O=C(Nc1nnc(-c2ccco2)o1)C1=COCCO1` the IC90 was 50.9 µg/mL (≈ 193 µM).
